Results as given in ChEMBL document CHEMBL1275409, “Antimicrobial-resistant pathogens in intensive care units in Canada: results of the Canadian National Intensive Care Unit (CAN-ICU) study, 2005-2006” (2008).

Key:
Assay type in all cases: functional
[1] = test system: Staphylococcus aureus; assay: Antimicrobial activity against methicillin-resistant Staphylococcus aureus isolated from ICU patient respiratory tract assessed as resistant isolates by broth microdilution method
[2] = test system: Enterococcus sp.; assay: Antimicrobial activity against vancomycin-resistant Enterococcus sp. isolated from ICU patient respiratory tract assessed as resistant isolates by broth microdilution method
[3] = test system: Staphylococcus aureus; assay: Antimicrobial activity against methicillin-resistant Staphylococcus aureus isolated from ICU patient blood assessed as resistant isolates by broth microdilution method
[4] = test system: Staphylococcus epidermidis; assay: Antimicrobial activity against methicillin-susceptible Staphylococcus epidermidis isolated from ICU patient wound assessed as resistant isolates by broth microdilution method
[5] = test system: Staphylococcus aureus; assay: Antimicrobial activity against methicillin-susceptible Staphylococcus aureus isolated from ICU patient wound assessed as resistant isolates by broth microdilution method
[6] = test system: Staphylococcus epidermidis; assay: Antimicrobial activity against methicillin-resistant Staphylococcus epidermidis isolated from ICU patient blood assessed as resistant isolates by broth microdilution method
[7] = test system: Enterococcus sp.; assay: Antimicrobial activity against vancomycin-resistant Enterococcus sp. assessed as resistant isolates by broth microdilution method
[8] = test system: Staphylococcus aureus; assay: Antimicrobial activity against methicillin-resistant Staphylococcus aureus assessed as resistant isolates by broth microdilution method
[9] = test system: Staphylococcus epidermidis; assay: Antimicrobial activity against methicillin-susceptible Staphylococcus epidermidis isolated from ICU patient blood assessed as resistant isolates by broth microdilution method
[10] = test system: Staphylococcus epidermidis; assay: Antimicrobial activity against methicillin-resistant Staphylococcus epidermidis isolated from ICU patient wound assessed as resistant isolates by broth microdilution method
[11] = test system: Staphylococcus aureus; assay: Antimicrobial activity against methicillin-susceptible Staphylococcus aureus isolated from ICU patient respiratory tract assessed as resistant isolates by broth microdilution method
[12] = test system: Staphylococcus aureus; assay: Antimicrobial activity against methicillin-susceptible Staphylococcus aureus isolated from ICU patient blood assessed as resistant isolates by broth microdilution method
[13] = test system: Staphylococcus epidermidis; assay: Antimicrobial activity against methicillin-resistant Staphylococcus epidermidis isolated from ICU patient urine assessed as resistant isolates by broth microdilution method
[14] = test system: Staphylococcus epidermidis; assay: Antimicrobial activity against methicillin-resistant Staphylococcus epidermidis assessed as resistant isolates by broth microdilution method
[15] = test system: Enterococcus sp.; assay: Antimicrobial activity against vancomycin-resistant Enterococcus sp. isolated from ICU patient urine assessed as resistant isolates by broth microdilution method
[16] = test system: Enterococcus sp.; assay: Antimicrobial activity against vancomycin-resistant Enterococcus sp. isolated from ICU patient blood assessed as resistant isolates by broth microdilution method
[17] = test system: Staphylococcus epidermidis; assay: Antimicrobial activity against methicillin-susceptible Staphylococcus epidermidis assessed as resistant isolates by broth microdilution method
[18] = test system: Staphylococcus epidermidis; assay: Antimicrobial activity against methicillin-susceptible Staphylococcus epidermidis isolated from ICU patient urine assessed as resistant isolates by broth microdilution method
[19] = test system: Staphylococcus aureus; assay: Antimicrobial activity against methicillin-susceptible Staphylococcus aureus assessed as resistant isolates by broth microdilution method
[20] = test system: Staphylococcus aureus; assay: Antimicrobial activity against methicillin-resistant Staphylococcus aureus isolated from ICU patient wound assessed as resistant isolates by broth microdilution method
[21] = test system: Staphylococcus aureus; assay: Antimicrobial activity against methicillin-resistant Staphylococcus aureus isolated from ICU patient urine assessed as resistant isolates by broth microdilution method
[22] = test system: Enterococcus sp.; assay: Antimicrobial activity against vancomycin-resistant Enterococcus sp. isolated from ICU patient wound assessed as resistant isolates by broth microdilution method
[23] = test system: Staphylococcus aureus; assay: Antimicrobial activity against methicillin-susceptible Staphylococcus aureus isolated from ICU patient urine assessed as resistant isolates by broth microdilution method
[24] = test system: Escherichia coli; assay: Antimicrobial activity against CTX-M ESBL producing Escherichia coli isolated from ICU patient respiratory tract assessed as resistant isolates by broth microdilution method
[25] = test system: Staphylococcus epidermidis; assay: Antimicrobial activity against methicillin-susceptible Staphylococcus epidermidis isolated from ICU patient respiratory tract assessed as resistant isolates by broth microdilution method
[26] = test system: Escherichia coli; assay: Antimicrobial activity against CTX-M ESBL producing Escherichia coli isolated from ICU patient wound assessed as resistant isolates by broth microdilution method
[27] = test system: Escherichia coli; assay: Antimicrobial activity against CTX-M ESBL producing Escherichia coli assessed as resistant isolates by broth microdilution method
[28] = test system: Escherichia coli; assay: Antimicrobial activity against CTX-M ESBL producing Escherichia coli isolated from ICU patient urine assessed as resistant isolates by broth microdilution method
[29] = test system: Pseudomonas aeruginosa; assay: Antimicrobial activity against carbapenem-resistant Pseudomonas aeruginosa isolated from ICU patient urine assessed as resistant isolates by broth microdilution method
[30] = test system: Pseudomonas aeruginosa; assay: Antimicrobial activity against carbapenem-resistant Pseudomonas aeruginosa isolated from ICU patient blood assessed as resistant isolates by broth microdilution method
[31] = test system: Pseudomonas aeruginosa; assay: Antimicrobial activity against carbapenem-resistant Pseudomonas aeruginosa isolated from ICU patient respiratory tract assessed as resistant isolates by broth microdilution method
[32] = test system: Pseudomonas aeruginosa; assay: Antimicrobial activity against carbapenem-resistant Pseudomonas aeruginosa isolated from ICU patient wound assessed as resistant isolates by broth microdilution method
[33] = test system: Pseudomonas aeruginosa; assay: Antimicrobial activity against carbapenem-resistant Pseudomonas aeruginosa assessed as resistant isolates by broth microdilution method
[34] = test system: Escherichia coli; assay: Antimicrobial activity against CTX-M ESBL producing Escherichia coli isolated from ICU patient blood assessed as resistant isolates by broth microdilution method
[35] = test system: Streptococcus pneumoniae; assay: Antimicrobial activity against penicillin-resistant Streptococcus pneumoniae isolated from ICU patient wound assessed as resistant isolates by broth microdilution method
[36] = test system: Streptococcus pneumoniae; assay: Antimicrobial activity against penicillin-resistant Streptococcus pneumoniae isolated from ICU patient blood assessed as resistant isolates by broth microdilution method
[37] = test system: Streptococcus pneumoniae; assay: Antimicrobial activity against penicillin-resistant Streptococcus pneumoniae isolated from ICU patient respiratory tract assessed as resistant isolates by broth microdilution method
[38] = test system: Streptococcus pneumoniae; assay: Antimicrobial activity against penicillin-resistant Streptococcus pneumoniae assessed as resistant isolates by broth microdilution method

| SMILES | Activity [1] | Activity [3] | Activity [4] | Activity [5] | Activity [6] | Activity [8] | Activity [9] | Activity [10] | Activity [11] | Activity [12] | Activity [13] | Activity [14] | Activity [17] | Activity [18] | Activity [19] | Activity [20] | Activity [21] | Activity [23] | Activity [35] | Activity [36] | other results |
| --- | --- | --- | --- | --- | --- | --- | --- | --- | --- | --- | --- | --- | --- | --- | --- | --- | --- | --- | --- | --- | --- |
| CCCCCCCCCC(=O)N[C@@H](Cc1c[nH]c2ccccc12)C(=O)N[C@H](CC(N)=O)C(=O)N[C@@H](CC(=O)O)C(=O)N[C@@H]1C(=O)NCC(=O)N[C@@H](CCCN)C(=O)N[C@@H](CC(=O)O)C(=O)N[C@H](C)C(=O)N[C@@H](CC(=O)O)C(=O)NCC(=O)N[C@H](CO)C(=O)N[C@@H]([C@H](C)CC(=O)O)C(=O)N[C@@H](CC(=O)c2ccccc2N)C(=O)O[C@@H]1C | 0% | 0% | 0% | 0% | 0% | 0% | 0% | 0% | 0% | 0% | 0% | 0% | 0% | 0% | 0% | 0% | 0% | 0% |  |  | Activity [2]: 0%; Activity [7]: 0%; Activity [15]: 0%; Activity [16]: 0%; Activity [22]: 0% |
| Cc1nnc(SCC2=C(C(=O)O)N3C(=O)[C@@H](NC(=O)Cn4cnnn4)[C@H]3SC2)s1 [CEFAZOLIN] | 100% | 100% | 0% | 0% | 100% | 100% | 0% | 100% | 0% | 0% | 100% | 100% | 0% | 0% | 0% | 100% | 100% | 0% |  |  | Activity [24]: 11.5%; Activity [25]: 0%; Activity [26]: 8.6%; Activity [27]: 20.1%; Activity [28]: 25.8%; Activity [29]: 7.8%; Activity [30]: 7.7%; Activity [31]: 4.9%; Activity [32]: 7.7%; Activity [33]: 6.2%; Activity [34]: 21.9% |
| CC[C@H]1OC(=O)[C@H](C)[C@@H](O[C@H]2C[C@@](C)(OC)[C@@H](O)[C@H](C)O2)[C@H](C)[C@@H](O[C@@H]2O[C@H](C)C[C@H](N(C)C)[C@H]2O)[C@](C)(OC)C[C@@H](C)C(=O)[C@H](C)[C@@H](O)[C@]1(C)O [CLARITHROMYCIN] |  |  | 79.2% | 23.9% | 100% |  | 74.6% | 94.1% | 19.5% | 16.1% | 100% | 96% | 77.4% | 100% | 20.1% |  | 100% | 30% | 16.7% | 13.2% | Activity [2]: 61.5%; Activity [7]: 65.9%; Activity [37]: 16.4%; Activity [38]: 15.9%; Activity [15]: 70.1%; Activity [16]: 68.6%; Activity [22]: 60.3% |
| CCC[C@@H]1C[C@@H](C(=O)N[C@@H]([C@H]2O[C@H](SC)[C@H](O)[C@@H](O)[C@H]2O)[C@H](C)Cl)N(C)C1 [CLINDAMYCIN] | 72.9% | 79.6% | 70.8% | 3.5% | 100% | 76.1% | 43.6% | 88.2% | 4.3% | 4.6% | 100% | 92% | 54.8% | 100% | 4.4% | 81.5% | 100% | 10% | 0% | 2.6% | Activity [37]: 6.4%; Activity [38]: 5.6% |
| CC(=O)NC[C@H]1CN(c2ccc(N3CCOCC3)c(F)c2)C(=O)O1 [LINEZOLID] | 0% | 0% | 0% | 0% | 0% | 0% | 0% | 0% | 0% | 0% | 0% | 0% | 0% | 0% | 0% | 0% | 0% | 0% | 0% | 0% | Activity [2]: 0%; Activity [7]: 1.8%; Activity [37]: 0%; Activity [38]: 0%; Activity [15]: 1.5%; Activity [16]: 2.9%; Activity [22]: 1.6% |
| COc1c(N2C[C@@H]3CCCN[C@@H]3C2)c(F)cc2c(=O)c(C(=O)O)cn(C3CC3)c12 [MOXIFLOXACIN] | 91.5% | 89.8% | 50% | 7.1% | 83.3% | 90.1% | 34.6% | 100% | 5.8% | 6.9% | 100% | 96% | 41.7% | 80% | 6.4% | 88.9% | 100% | 15% | 0% | 0% | Activity [37]: 1.6%; Activity [38]: 1.3% |
| CN[C@H](CC(C)C)C(=O)N[C@H]1C(=O)N[C@@H](CC(N)=O)C(=O)N[C@H]2C(=O)N[C@H]3C(=O)N[C@H](C(=O)N[C@H](C(=O)O)c4cc(O)cc(O)c4-c4cc3ccc4O)[C@H](O)c3ccc(c(Cl)c3)Oc3cc2cc(c3O[C@@H]2O[C@H](CO)[C@@H](O)[C@H](O)[C@H]2O[C@H]2C[C@](C)(N)[C@H](O)[C@H](C)O2)Oc2ccc(cc2Cl)[C@H]1O [VANCOMYCIN] | 0% | 0% | 0% | 0% | 0% | 0% | 0% | 0% | 0% | 0% | 0% | 0% | 0% | 0% | 0% | 0% | 0% | 0% | 0% | 0% | Activity [2]: 3.3%; Activity [25]: 0%; Activity [7]: 6.8%; Activity [37]: 0%; Activity [38]: 0%; Activity [15]: 4%; Activity [16]: 5.4%; Activity [22]: 12.5% |
